Experiments:
[1] = tested on: Promega Mid-Range Molecular Weight Standards; assay: Quantitation of proteins separated by SDS-PAGE, sensitivity overall; details: extracted bands
Procedure: A 10% SDS-PAGE gel was made as described in the Example 5. Promega Mid-Range Molecular Weight Standards were diluted into loading buffer to produce solutions containing 2.0, 1.0, 0.5, and 0.25 μg of protein per band in 5 μl of solution. Duplicate 5 μl solutions of each of these solutions were loaded into 1 of the 10 sample wells in the gel after the solutions were heated at 95° C. for 10 minutes. The gel was then electrophoresed at 160 V until the running dye just eluted from the bottom of the gel. The gel was destained, and signal from stained protein enhanced, for 90 minutes in 30% methanol, 4% acetic acid.
One of the pair of duplicate bands for the 97.4, 66.2, 55.0 and 42.7 kilodalton standards from the lanes containing 2.0, 1.0, 0.5, and 0.25 μg of protein per band were excised with a razor blade as were two control gel segments from regions of the gel not containing protein. The excised segments were placed in individual 1.5 ml Eppendorf tubes containing 2% SDS and allowed to incubate at room temperature for 72 hours. After this time, the solutions were removed from the extracted segments and acetic acid was added to 2% (v/v) final concentration. The absorption of the solutions at […] was then measured.

[2] = tested on: Promega Mid-Range Molecular Weight Markers; assay: Enhancement of staining of proteins in SDS-PAGE gels in 5% acetic acid
Procedure: The gels described above were placed in 5% acetic acid following the termination of the electrophoretic separation. Within one to two minutes the gel developed a light green background but the protein bands dramatically darkened to a green color. […] Again, the color of the background darkened to a greater degree when greater concentrations of dye were used.
The gels above (from Example 7) were placed in 5% acetic acid following termination of the electrophoretic separation. Within 1-2 minutes, all the gels turned light green and the color of the stained bands intensified such that all proteins were visible--even in the lane containing 0.25 μg protein/band.
The gels above (Example 9) were placed in 5% acetic acid following termination of the electrophoretic separation. Within 1-2 minutes, all the gels turned light green and the color of the stained bands intensified such that all proteins were visible--even in the lanes containing 0.25 μg protein/band.

CCCCCCCC(=O)N(c1ccc(OCC)cc1)c1ccc(C(=C2C=CC(=[N+](CC)Cc3cccc(S(=O)(=O)[O-])c3)C=C2)c2ccc(N(CC)Cc3cccc(S(=O)(=O)O)c3)cc2)cc1 [Promega Green 1]
lowest amount of protein measured quantitatively [1]: 250 ng
visibility of protein bands after enhancement ([2]; 5% acetic acid, one to two minutes): All of the protein bands in all the lanes having sample were now visible
staining after overnight incubation ([2]; 5% acetic acid, overnight): appeared to darken slightly
overall performance ([2]; Examples 5-10): most desirable properties of the compounds tested
